Results published in patent publication KR20210056931A, “피리메타민을 유효성분으로 포함하는 면역 관련 질환의 치료 또는 예방용 약학 조성물” (priority 2019, dated 2021).

Key:
[1] = tested on: rheumatoid arthritis model, DBA-1J Mice [류마티스 관절염 모델]; test: Histopathological examination in rheumatoid arthritis animal model, dose regimen study, Experiment 6; type: in vivo, mouse; details: Day 14
[2] = Hematological examination, Experiment 6-4; type: in vivo, mouse; details: Day 14
[3] = G3: MTX 2 mpk qd PO, G12: Py 15 mpk qd PO

In the case of `CCc1nc(N)nc(N)c1-c1ccc(Cl)cc1` [피리메타민, Pyrimethamine], the “Efficacy by histopathology compared with hydroxychloroquine and tofacitinib (in words)” value [1] is reported as “히드록시클로로퀸과 토파시티닙에 비해 보다 우수한 효과”, the “Efficacy by histopathology compared with methotrexate (in words)” value [1] is reported as “메토트렉세이트와 유사한 수준의 관절염 치료 효능” and the “Therapeutic efficacy by histopathology (in words)” value [1] is reported as “농도 의존적으로 치료 효능을 보였다”. For the same molecule, the Bone destruction ([1]; G7: Py 1 mg/kg/day QD IP) was 2.5±0.5, the Cartilage damage ([1]; G7: Py 1 mg/kg/day QD IP) was 2.2±1.0 and the “Histopathological examination, total” value ([1]; G7: Py 1 mg/kg/day QD IP) was 7.7±1.5. For the same molecule, the Synovium proliferation ([1]; G7: Py 1 mg/kg/day QD IP) was 3.0±0.0, the Bone destruction ([1]; G8: Py 1 mg/kg/day BID PO) was 2.8±0.4 and the Cartilage damage ([1]; G8: Py 1 mg/kg/day BID PO) was 2.3±1.2. The “Histopathological examination, total” value ([1]; G8: Py 1 mg/kg/day BID PO) was 7.8±2.4, the Synovium proliferation ([1]; G8: Py 1 mg/kg/day BID PO) was 2.7±0.8 and the Bone destruction ([1]; G9: Py 1 mg/kg/day QD PO) was 2.5±0.8. For the same molecule, the Cartilage damage ([1]; G9: Py 1 mg/kg/day QD PO) was 2.3±0.8, the “Histopathological examination, total” value ([1]; G9: Py 1 mg/kg/day QD PO) was 7.8±1.6 and the Synovium proliferation ([1]; G9: Py 1 mg/kg/day QD PO) was 3.0±0.0. The Bone destruction ([1]; G10: Py 3 mg/kg/day BID PO) was 2.8±0.4, the Cartilage damage ([1]; G10: Py 3 mg/kg/day BID PO) was 2.0±0.6 and the “Histopathological examination, total” value ([1]; G10: Py 3 mg/kg/day BID PO) was 7.8±0.8. It also gave a Synovium proliferation ([1]; G10: Py 3 mg/kg/day BID PO) of 3.0±0.0, a Bone destruction ([1]; G11: Py 5 mg/kg QD PO) of 2.0±0.9 and a Cartilage damage ([1]; G11: Py 5 mg/kg QD PO) of 1.7±0.8. For the same molecule, the “Histopathological examination, total” value ([1]; G11: Py 5 mg/kg QD PO) was 6.7±1.5, the Synovium proliferation ([1]; G11: Py 5 mg/kg QD PO) was 3.0±0.0 and the Bone destruction ([1]; G12: Py 15 mg/kg/day QD PO) was 2.2±0.4. The Cartilage damage ([1]; G12: Py 15 mg/kg/day QD PO) was 1.5±0.5, the “Histopathological examination, total” value ([1]; G12: Py 15 mg/kg/day QD PO) was 6.3±0.8 and the Synovium proliferation ([1]; G12: Py 15 mg/kg/day QD PO) was 2.7±0.5. The “%BASO” value [2, 3] was 0.4±0.3%, the “%EOS” value [2, 3] was 1.5±0.4% and the “%LUC” value [2, 3] was 1.5±1%. For the same molecule, the “%LYM” value [2, 3] was 40.4±4.1%, the “%MONO” value [2, 3] was 4.2±0.8% and the “%NEUT” value [2, 3] was 52±5.2%. For the same molecule, the “%RETIC” value [2, 3] was 3.85±0.63%, the HCT [2, 3] was 46±2.5% and the HDW [2, 3] was 2.15 ± 0.13 g/dL. The HGB [2, 3] was 12.6 ± 0.7 g/dL, the MCH [2, 3] was 13.1 ± 0.4 pg and the MCV [2, 3] was 47.8 ± 1.5 fL. For the same molecule, the MPV [2, 3] was 6.3 ± 0.1 fL, the PLT [2, 3] was 1211±176 10^3 cell/μL and the RBC [2, 3] was 9.63±0.75 10^6 cell/μL. For the same molecule, the RDW [2, 3] was 24.2±2.2%, the WBC [2, 3] was 3.58±1.19 10^3 cell/μL and the “%BASO” value ([2]; G7: Py 1 mpk qd IP) was 0.8±0.1%. For the same molecule, the “%EOS” value ([2]; G7: Py 1 mpk qd IP) was 1.2±0.2%, the “%LUC” value ([2]; G7: Py 1 mpk qd IP) was 2.8±1.3% and the “%LYM” value ([2]; G7: Py 1 mpk qd IP) was 49.2±3.5%. For the same molecule, the “%MONO” value ([2]; G7: Py 1 mpk qd IP) was 6.1±2.1%, the “%NEUT” value ([2]; G7: Py 1 mpk qd IP) was 40±3.5% and the “%RETIC” value ([2]; G7: Py 1 mpk qd IP) was 5.1±0.9%. It also gave an HCT ([2]; G7: Py 1 mpk qd IP) of 43.6±3.2%, an HDW ([2]; G7: Py 1 mpk qd IP) of 2.33 ± 0.15 g/dL and an HGB ([2]; G7: Py 1 mpk qd IP) of 11.9 ± 0.7 g/dL. The MCH ([2]; G7: Py 1 mpk qd IP) was 12.3 ± 0.2 pg, the MCV ([2]; G7: Py 1 mpk qd IP) was 45.1 ± 0.8 fL and the MPV ([2]; G7: Py 1 mpk qd IP) was 7.5 ± 0.6 fL. For the same molecule, the PLT ([2]; G7: Py 1 mpk qd IP) was 403±182 10^3 cell/μL, the RBC ([2]; G7: Py 1 mpk qd IP) was 9.68±0.63 10^6 cell/μL and the RDW ([2]; G7: Py 1 mpk qd IP) was 22±2.8%. For the same molecule, the WBC ([2]; G7: Py 1 mpk qd IP) was 5.4±2.01 10^3 cell/μL, the “%BASO” value ([2]; G8: Py 1 mpk qd PO) was 0.6±0.2% and the “%EOS” value ([2]; G8: Py 1 mpk qd PO) was 1.6±0.5%. The “%LUC” value ([2]; G8: Py 1 mpk qd PO) was 2±0.8%, the “%LYM” value ([2]; G8: Py 1 mpk qd PO) was 45±8.1% and the “%MONO” value ([2]; G8: Py 1 mpk qd PO) was 4.7±1.2%. The “%NEUT” value ([2]; G8: Py 1 mpk qd PO) was 46.3±9.0%.
